Drawing on ChEMBL document CHEMBL1909046, “DrugMatrix in vitro pharmacology data”, this text covers IC50 and Ki for 5 compounds.

The structures appear in SMILES notation.

Melanocortin receptor 4, sequence (P32245 whole entry): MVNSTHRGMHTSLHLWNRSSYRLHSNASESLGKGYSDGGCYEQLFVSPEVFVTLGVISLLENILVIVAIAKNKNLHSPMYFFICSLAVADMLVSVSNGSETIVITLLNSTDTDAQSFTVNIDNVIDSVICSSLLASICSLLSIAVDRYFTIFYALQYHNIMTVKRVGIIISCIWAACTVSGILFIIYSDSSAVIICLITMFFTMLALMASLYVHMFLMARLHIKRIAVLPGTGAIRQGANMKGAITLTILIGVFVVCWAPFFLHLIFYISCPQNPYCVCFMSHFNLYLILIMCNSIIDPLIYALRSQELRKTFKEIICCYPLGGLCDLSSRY
Cytochrome P450 2E1, sequence (P05181 whole entry): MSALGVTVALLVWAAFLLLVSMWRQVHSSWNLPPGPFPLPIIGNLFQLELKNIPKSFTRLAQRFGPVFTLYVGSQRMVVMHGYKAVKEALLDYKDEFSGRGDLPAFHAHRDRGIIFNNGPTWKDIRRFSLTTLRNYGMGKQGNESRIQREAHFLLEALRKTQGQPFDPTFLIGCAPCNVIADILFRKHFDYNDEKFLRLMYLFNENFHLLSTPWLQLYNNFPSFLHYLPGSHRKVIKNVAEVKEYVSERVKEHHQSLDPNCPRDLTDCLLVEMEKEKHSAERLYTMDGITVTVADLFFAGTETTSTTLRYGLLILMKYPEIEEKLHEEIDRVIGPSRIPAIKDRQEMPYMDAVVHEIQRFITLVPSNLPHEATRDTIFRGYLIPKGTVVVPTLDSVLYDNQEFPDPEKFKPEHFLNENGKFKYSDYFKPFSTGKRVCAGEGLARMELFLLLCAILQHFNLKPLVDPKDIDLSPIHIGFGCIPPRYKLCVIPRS

For the first series, the target named is T1, C-X-C chemokine receptor type 2 (Homo sapiens, UniProt P25025). Further: in other assays of this panel Not Active means under 50% inhibition at 10 µM.
T1 sequence (P25025 whole entry): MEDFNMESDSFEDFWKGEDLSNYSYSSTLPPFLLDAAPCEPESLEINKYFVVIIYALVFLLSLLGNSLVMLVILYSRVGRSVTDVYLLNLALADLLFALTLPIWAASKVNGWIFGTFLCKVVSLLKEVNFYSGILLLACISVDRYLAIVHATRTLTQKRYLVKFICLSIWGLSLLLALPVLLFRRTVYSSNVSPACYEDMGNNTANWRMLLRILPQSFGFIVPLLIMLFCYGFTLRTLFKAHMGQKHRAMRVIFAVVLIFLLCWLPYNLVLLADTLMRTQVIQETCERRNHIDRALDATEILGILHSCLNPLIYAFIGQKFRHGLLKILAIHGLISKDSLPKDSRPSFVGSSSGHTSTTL
Assay: not given
In kind it is cell membranes, Membrane. Conditions: cho-k1.
Regarding `CC(C(=O)O)c1cccc(C(=O)c2ccccc2)c1` (stereo not given) [KETOPROFEN], the IC50 entry was “Not Active”.

Turning to `O=S(=O)([O-])CCS.[Na+]` [MESNA], the IC50 entry is reported as “Not Active”.

Regarding `CC(=O)Nc1cccc(O)c1` [METACETAMOL], the IC50 result is on record as “Not Active”.

For `Cc1ncc([N+](=O)[O-])n1CCO` [METRONIDAZOLE], the IC50 result was “Not Active”.

As to `CC(C)(C(=O)c1cccnc1)c1cccnc1` [METYRAPONE], the IC50 entry was “Not Active”.

Tested on in another series: not listed separately
The experiment in a line: DRUGMATRIX: GABAA, Chloride Channel, TBOB radioligand binding (ligand: [3H] TBOB). Conditions: Not Active = under 50% inhibition at 10 µM. In kind it is cell membranes, Rattus norvegicus, Wistar, Cerebral cortex, Membrane.
As for `CC(C(=O)O)c1cccc(C(=O)c2ccccc2)c1` (stereo not given) [KETOPROFEN], the IC50 entry is “Not Active” and the Ki result is reported as “Not Active”.

`O=S(=O)([O-])CCS.[Na+]` [MESNA]: the IC50 entry was “Not Active” and the Ki entry was “Not Active”.

As to `CC(=O)Nc1cccc(O)c1` [METACETAMOL], the IC50 result was “Not Active” and the Ki entry was “Not Active”.

Consider `Cc1ncc([N+](=O)[O-])n1CCO` [METRONIDAZOLE], for which the IC50 result is reported as “Not Active” and the Ki entry is “Not Active”.

As to `CC(C)(C(=O)c1cccnc1)c1cccnc1` [METYRAPONE], the IC50 result is reported as “Not Active” and the Ki result was “Not Active”.

For another series, the target named is Insulin receptor (Rattus norvegicus, UniProt P15127). Further: in other assays of this panel Not Active means under 50% inhibition at 10 µM.
Insulin receptor, sequence (P15127 27-759 limits assumed): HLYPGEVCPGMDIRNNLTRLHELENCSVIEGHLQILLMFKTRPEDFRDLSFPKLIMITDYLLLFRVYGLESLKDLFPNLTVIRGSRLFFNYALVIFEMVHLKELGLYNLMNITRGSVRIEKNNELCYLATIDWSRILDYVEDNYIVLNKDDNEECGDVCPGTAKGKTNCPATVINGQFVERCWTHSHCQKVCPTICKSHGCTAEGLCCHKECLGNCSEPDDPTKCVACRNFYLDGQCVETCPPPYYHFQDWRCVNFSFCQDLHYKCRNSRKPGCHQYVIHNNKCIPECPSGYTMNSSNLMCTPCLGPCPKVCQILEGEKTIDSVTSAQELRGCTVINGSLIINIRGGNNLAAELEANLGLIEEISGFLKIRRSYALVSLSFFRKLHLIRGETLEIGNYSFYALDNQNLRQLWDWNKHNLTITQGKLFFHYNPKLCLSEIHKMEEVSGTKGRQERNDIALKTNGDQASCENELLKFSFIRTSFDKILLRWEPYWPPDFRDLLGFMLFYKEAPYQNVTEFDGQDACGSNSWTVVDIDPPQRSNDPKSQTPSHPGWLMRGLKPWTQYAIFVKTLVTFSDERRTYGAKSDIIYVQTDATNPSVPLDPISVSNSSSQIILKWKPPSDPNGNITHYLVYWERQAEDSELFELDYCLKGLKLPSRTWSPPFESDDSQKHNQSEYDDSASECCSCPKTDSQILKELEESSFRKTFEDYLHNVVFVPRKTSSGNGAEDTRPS
Insulin receptor, sequence (P15127 764-1383 limits assumed): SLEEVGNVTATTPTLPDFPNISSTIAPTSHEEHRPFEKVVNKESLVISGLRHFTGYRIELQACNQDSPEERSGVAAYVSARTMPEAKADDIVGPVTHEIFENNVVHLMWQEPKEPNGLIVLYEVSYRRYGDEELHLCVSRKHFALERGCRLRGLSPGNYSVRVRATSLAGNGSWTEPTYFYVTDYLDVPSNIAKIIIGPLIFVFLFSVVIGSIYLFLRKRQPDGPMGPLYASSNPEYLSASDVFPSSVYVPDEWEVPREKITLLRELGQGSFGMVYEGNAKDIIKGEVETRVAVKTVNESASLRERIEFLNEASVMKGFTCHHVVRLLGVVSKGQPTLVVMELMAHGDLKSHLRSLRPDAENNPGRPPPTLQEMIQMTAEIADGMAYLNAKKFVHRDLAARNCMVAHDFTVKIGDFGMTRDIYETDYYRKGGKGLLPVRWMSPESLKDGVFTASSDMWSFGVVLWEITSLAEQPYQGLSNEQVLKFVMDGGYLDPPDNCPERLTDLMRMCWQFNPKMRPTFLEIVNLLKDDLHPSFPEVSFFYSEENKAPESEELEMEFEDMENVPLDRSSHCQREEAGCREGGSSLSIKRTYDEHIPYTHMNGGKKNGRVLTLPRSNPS
Assay: not given
Settings: not given
The class given is cell membranes, Wistar, Liver, Membrane.
For the compound `CC(C(=O)O)c1cccc(C(=O)c2ccccc2)c1` (stereo not given) [KETOPROFEN], the IC50 entry was “Not Active”.

For `O=S(=O)([O-])CCS.[Na+]` [MESNA], the IC50 entry is recorded as “Not Active”.

For `CC(=O)Nc1cccc(O)c1` [METACETAMOL], the IC50 result was “Not Active”.

In the case of `Cc1ncc([N+](=O)[O-])n1CCO` [METRONIDAZOLE], the IC50 entry is on record as “Not Active”.

Consider `CC(C)(C(=O)c1cccnc1)c1cccnc1` [METYRAPONE], for which the IC50 result is reported as “Not Active”.

Another series concerns the target Melanocortin receptor 4 (Homo sapiens, UniProt P32245). Further: in other assays of this panel Not Active means under 50% inhibition at 10 µM.
Assay: not given
In kind it is cell membranes, Membrane. Conditions: hek293.
Regarding `CC(C(=O)O)c1cccc(C(=O)c2ccccc2)c1` (stereo not given) [KETOPROFEN], the IC50 result is “Not Active”.

Take `O=S(=O)([O-])CCS.[Na+]` [MESNA]: the IC50 result is recorded as “Not Active”.

With `CC(=O)Nc1cccc(O)c1` [METACETAMOL], the IC50 result is recorded as “Not Active”.

In the case of `Cc1ncc([N+](=O)[O-])n1CCO` [METRONIDAZOLE], the IC50 entry was “Not Active”.

In the case of `CC(C)(C(=O)c1cccnc1)c1cccnc1` [METYRAPONE], the IC50 entry is “Not Active”.

Tested on in a further series: not listed separately
Briefly: DRUGMATRIX: Phosphodiesterase PDE3 enzyme inhibition (substrate: [3H]cAMP + cAMP). The note with it: platelet; Not Active = under 50% inhibition at 10 µM. In kind it is tissue-based, Homo sapiens.
Turning to `CC(C(=O)O)c1cccc(C(=O)c2ccccc2)c1` (stereo not given) [KETOPROFEN], the IC50 entry is “Not Active” and the Ki entry is “Not Active”.

Turning to `O=S(=O)([O-])CCS.[Na+]` [MESNA], the IC50 entry is recorded as “Not Active” and the Ki entry is given as “Not Active”.

Take `CC(=O)Nc1cccc(O)c1` [METACETAMOL]: the IC50 result is “Not Active” and the Ki result was “Not Active”.

As for `Cc1ncc([N+](=O)[O-])n1CCO` [METRONIDAZOLE], the IC50 entry is “Not Active” and the Ki entry is given as “Not Active”.

For `CC(C)(C(=O)c1cccnc1)c1cccnc1` [METYRAPONE], the IC50 entry was “Not Active” and the Ki result was “Not Active”.

A further series deals with Receptor tyrosine-protein kinase erbB-2 (Homo sapiens, UniProt P04626). The experiment in a line: biochemical. The note with it: insect cells. In kind it is cell-based, Insect cells.
Receptor tyrosine-protein kinase erbB-2, sequence (P04626 whole entry): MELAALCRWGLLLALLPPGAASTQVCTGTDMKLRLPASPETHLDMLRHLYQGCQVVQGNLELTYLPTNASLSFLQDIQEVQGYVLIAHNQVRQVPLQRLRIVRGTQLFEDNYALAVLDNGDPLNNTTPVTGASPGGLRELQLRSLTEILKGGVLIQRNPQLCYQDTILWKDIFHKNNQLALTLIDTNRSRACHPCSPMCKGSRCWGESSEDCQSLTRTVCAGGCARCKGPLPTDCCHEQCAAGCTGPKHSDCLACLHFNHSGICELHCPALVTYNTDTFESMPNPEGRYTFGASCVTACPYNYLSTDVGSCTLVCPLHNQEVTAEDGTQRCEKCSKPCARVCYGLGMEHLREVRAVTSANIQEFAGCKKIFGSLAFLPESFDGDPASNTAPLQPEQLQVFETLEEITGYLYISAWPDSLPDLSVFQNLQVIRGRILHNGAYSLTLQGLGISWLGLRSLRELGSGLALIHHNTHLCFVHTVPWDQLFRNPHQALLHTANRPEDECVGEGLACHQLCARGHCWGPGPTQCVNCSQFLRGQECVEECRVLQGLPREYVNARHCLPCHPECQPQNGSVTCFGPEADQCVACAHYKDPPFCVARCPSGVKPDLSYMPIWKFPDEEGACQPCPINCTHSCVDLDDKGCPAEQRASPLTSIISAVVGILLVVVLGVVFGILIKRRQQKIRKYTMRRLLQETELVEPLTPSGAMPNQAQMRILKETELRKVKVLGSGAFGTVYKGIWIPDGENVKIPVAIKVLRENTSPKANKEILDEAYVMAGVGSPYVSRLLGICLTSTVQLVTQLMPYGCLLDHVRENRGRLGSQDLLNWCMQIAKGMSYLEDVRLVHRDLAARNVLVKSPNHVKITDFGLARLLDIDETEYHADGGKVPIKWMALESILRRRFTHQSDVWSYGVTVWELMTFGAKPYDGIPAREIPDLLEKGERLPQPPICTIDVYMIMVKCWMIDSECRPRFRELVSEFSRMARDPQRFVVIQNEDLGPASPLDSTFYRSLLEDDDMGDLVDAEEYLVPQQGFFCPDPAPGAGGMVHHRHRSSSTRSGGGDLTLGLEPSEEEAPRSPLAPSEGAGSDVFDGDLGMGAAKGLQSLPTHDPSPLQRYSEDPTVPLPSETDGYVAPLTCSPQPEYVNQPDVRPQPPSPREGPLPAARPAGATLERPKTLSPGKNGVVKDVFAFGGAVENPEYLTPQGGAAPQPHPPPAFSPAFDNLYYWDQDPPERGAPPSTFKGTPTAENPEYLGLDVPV
For the compound `CC(C(=O)O)c1cccc(C(=O)c2ccccc2)c1` (stereo not given) [KETOPROFEN], the IC50 result is on record as “Not Active”.

Turning to `O=S(=O)([O-])CCS.[Na+]` [MESNA], the IC50 result is given as “Not Active”.

Take `CC(=O)Nc1cccc(O)c1` [METACETAMOL]: the IC50 entry is “Not Active”.

As for `Cc1ncc([N+](=O)[O-])n1CCO` [METRONIDAZOLE], the IC50 entry is reported as “Not Active”.

As for `CC(C)(C(=O)c1cccnc1)c1cccnc1` [METYRAPONE], the IC50 entry is reported as “Not Active”.

In a further series the target is T2, Receptor-type tyrosine-protein phosphatase C (Homo sapiens, UniProt P08575).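 Further: inhibition of CD45 enzyme activity measured using DiFMUP as substrate; in other assays of this panel Not Active means under 50% inhibition at 10 µM.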
T2 sequence (P08575 whole entry): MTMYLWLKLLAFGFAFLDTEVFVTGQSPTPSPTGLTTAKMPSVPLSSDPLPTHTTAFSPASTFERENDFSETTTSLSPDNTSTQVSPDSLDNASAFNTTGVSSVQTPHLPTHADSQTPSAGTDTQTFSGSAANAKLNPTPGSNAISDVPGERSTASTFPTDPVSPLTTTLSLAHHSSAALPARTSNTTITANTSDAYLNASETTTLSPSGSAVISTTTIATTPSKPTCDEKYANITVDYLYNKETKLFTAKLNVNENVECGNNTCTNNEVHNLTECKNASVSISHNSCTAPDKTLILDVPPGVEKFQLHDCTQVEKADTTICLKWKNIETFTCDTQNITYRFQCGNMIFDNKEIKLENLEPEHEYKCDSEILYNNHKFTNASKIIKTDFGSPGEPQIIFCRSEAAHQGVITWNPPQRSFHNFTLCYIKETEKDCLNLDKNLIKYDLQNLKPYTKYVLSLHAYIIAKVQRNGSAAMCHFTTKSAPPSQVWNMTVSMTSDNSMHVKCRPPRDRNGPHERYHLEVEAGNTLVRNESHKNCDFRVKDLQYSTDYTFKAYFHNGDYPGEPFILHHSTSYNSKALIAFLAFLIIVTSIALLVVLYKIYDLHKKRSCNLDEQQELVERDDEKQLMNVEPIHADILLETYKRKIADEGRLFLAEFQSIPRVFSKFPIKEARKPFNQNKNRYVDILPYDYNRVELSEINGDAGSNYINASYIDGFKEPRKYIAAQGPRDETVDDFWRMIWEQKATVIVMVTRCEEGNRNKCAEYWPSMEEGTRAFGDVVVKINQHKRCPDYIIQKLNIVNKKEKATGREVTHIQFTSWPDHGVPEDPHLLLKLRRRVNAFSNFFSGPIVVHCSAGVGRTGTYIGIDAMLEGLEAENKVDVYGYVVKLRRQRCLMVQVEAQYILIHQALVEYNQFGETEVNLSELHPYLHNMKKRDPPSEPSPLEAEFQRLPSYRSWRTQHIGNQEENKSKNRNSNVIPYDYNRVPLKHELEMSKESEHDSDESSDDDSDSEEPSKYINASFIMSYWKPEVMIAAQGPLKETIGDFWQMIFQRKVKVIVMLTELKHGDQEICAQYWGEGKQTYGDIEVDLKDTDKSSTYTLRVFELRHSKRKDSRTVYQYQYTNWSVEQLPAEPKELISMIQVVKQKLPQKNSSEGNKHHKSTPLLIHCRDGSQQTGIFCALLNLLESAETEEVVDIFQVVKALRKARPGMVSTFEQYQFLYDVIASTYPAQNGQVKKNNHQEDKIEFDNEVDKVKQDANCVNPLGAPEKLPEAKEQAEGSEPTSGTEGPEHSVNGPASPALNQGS
Assay: not given
Settings: not given
Further details: species or system Escherichia coli.
As for `CC(C(=O)O)c1cccc(C(=O)c2ccccc2)c1` (stereo not given) [KETOPROFEN], the IC50 entry is listed as “Not Active”.

`O=S(=O)([O-])CCS.[Na+]` [MESNA]: the IC50 result is given as “Not Active”.

As to `CC(=O)Nc1cccc(O)c1` [METACETAMOL], the IC50 entry is given as “Not Active”.

Take `Cc1ncc([N+](=O)[O-])n1CCO` [METRONIDAZOLE]: the IC50 result was “Not Active”.

Consider `CC(C)(C(=O)c1cccnc1)c1cccnc1` [METYRAPONE], for which the IC50 result is on record as “Not Active”.

A further series concerns the target Cytochrome P450 2E1 (Homo sapiens, UniProt P05181). Further: in other assays of this panel Not Active means under 50% inhibition at 10 µM.
Assay: not given
The note with it: bti-tn-5b1-4.
For `CC(C(=O)O)c1cccc(C(=O)c2ccccc2)c1` (stereo not given) [KETOPROFEN], the IC50 entry is on record as “Not Active” and the Ki result is “Not Active”.

`O=S(=O)([O-])CCS.[Na+]` [MESNA]: the IC50 entry is “Not Active” and the Ki result was “Not Active”.

For the compound `CC(=O)Nc1cccc(O)c1` [METACETAMOL], the IC50 result is recorded as “Not Active” and the Ki entry is given as “Not Active”.

With `Cc1ncc([N+](=O)[O-])n1CCO` [METRONIDAZOLE], the IC50 result is “Not Active” and the Ki entry is given as “Not Active”.

With `CC(C)(C(=O)c1cccnc1)c1cccnc1` [METYRAPONE], the IC50 entry is reported as “Not Active” and the Ki entry is given as “Not Active”.

The next series concerns the target T3, Estrogen receptor (Homo sapiens, UniProt P03372). Further: in other assays of this panel Not Active means under 50% inhibition at 10 µM.
T3 sequence (P03372 whole entry): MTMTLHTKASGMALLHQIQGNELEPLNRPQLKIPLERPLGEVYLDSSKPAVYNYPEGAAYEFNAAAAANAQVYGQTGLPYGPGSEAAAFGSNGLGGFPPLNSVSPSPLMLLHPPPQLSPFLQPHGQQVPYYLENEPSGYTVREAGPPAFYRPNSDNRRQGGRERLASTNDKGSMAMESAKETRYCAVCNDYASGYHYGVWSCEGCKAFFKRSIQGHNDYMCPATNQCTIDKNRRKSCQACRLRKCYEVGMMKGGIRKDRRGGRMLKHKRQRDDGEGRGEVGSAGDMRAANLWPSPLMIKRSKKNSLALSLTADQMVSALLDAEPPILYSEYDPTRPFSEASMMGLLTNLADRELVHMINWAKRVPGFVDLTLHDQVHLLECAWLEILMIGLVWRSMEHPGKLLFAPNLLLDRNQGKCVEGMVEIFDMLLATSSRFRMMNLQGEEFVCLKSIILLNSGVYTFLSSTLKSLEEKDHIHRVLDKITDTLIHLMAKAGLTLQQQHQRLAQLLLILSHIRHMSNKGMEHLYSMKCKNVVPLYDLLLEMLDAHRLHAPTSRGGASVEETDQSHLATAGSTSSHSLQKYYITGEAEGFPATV
Assay: not given
Conditions: sf9.
Regarding `CC(C(=O)O)c1cccc(C(=O)c2ccccc2)c1` (stereo not given) [KETOPROFEN], the IC50 result is reported as “Not Active”.

`O=S(=O)([O-])CCS.[Na+]` [MESNA]: the IC50 result is listed as “Not Active”.

As for `CC(=O)Nc1cccc(O)c1` [METACETAMOL], the IC50 result is “Not Active”.

With `Cc1ncc([N+](=O)[O-])n1CCO` [METRONIDAZOLE], the IC50 result is listed as “Not Active”.

As to `CC(C)(C(=O)c1cccnc1)c1cccnc1` [METYRAPONE], the IC50 result was “Not Active”.
